In patent publication US11945847B2, “Optogenetic induction of neurodegenerative disease pathologies” (UNIVERSITY OF PITTSBURGH—OF THE COMMONWEALTH SYSTEM OF …, priority 2017, dated 2024):

How the values were obtained:
HEK cells [1] = test: Light-induced oligomerization of optogenetic TDP-43 fragments, live confocal microscopy; assay type: cell-based; details: for oligomerization after a brief pulse of blue light: 8 sec, live confocal microscopy; for oligomerization after a brief pulse of blue light / persistence of oligomers: 10% laser power, 488 nm; for persistence of oligomers: after brief pulse 8 sec
Description: (§1) FIGS. 4A-4E show light-induced aggregation of low-complexity domain proteins. Optogenetic TDP-43 fragments containing the low-complexity domain (LCD) undergo progressive aggregation with light stimulation. […] (FIGS. 4C-4D) Optogenetic LCD fragments also continue to aggregate following brief light pulses, growing in size over time. (FIG. 4E) Persistent blue light stimulation of the TDP-43 LCD forms intracellular aggregates in the cells.
Beyond protein aggregation, this system creates light-induced pathologies that mimic key pathological features found in patients making it unique compared to overexpression systems. The TDP-43 protein, which contains an LCD, was combined with the CRY2OLIG photoreceptor domain which clusters when exposed to blue light and becomes insoluble and aggregated with persistent light treatment. Fusion proteins of the full length and partial LCD sequence were generated to recapitulate human neurodegenerative disease pathology, including the cytoplasmic mislocalization of nuclear proteins that occurs in patients with ALS and FTD. This system could induce neurodegenerative disease protein aggregates in live HEK cells by exposing them to various blue light stimuli paradigms (FIGS. 4-5). In addition, biochemical hallmarks of ALS, FTD, and AD (FIG. 7) were produced showing that the cell is responding to the light-induced aggregates as observed in patient CNS despite the addition of these tags. […] Employing this DNA arrangement and light stimulation system as an example, cytoplasmic TDP-43 aggregates were obtained that are also ubiquitinylated, cleaved, and hyperphosphorylated as observed in ALS, FTD, and AD patients. TDP-43 pathology is also found in AD as well as Chronic Traumatic Encephalopathy (CTE) thus highlighting the potential disease relevance of this work. In addition, a protein arrangement and light stimulation paradigm was developed to induce the aggregation of α-synuclein (FIG. 6), which is found in the CNS of patients diagnosed with Parkinson's Disease and Lewy Body Dementia. Methods were also developed to induce intracellular aggregation of Tau protein using both the Cry-PHR and LOV photoreceptors (FIG. 7) and persistent blue light stimulation. These tau tangles are pathological hallmarks of AD, FTD and CTE in HEK cells. […] Finally, it was shown that this method can be utilized to seed aggregations, as aggregates of TDP-43 formed using this method recruit endogenous TDP-43 to seed the pathogenic neuropathology (FIGS. 5F, 5G).

HEK293 cells [2] = test: Fluorescence recovery after photobleaching (FRAP) of light-induced TDP-43 inclusions; assay type: cell-based; details: persistent / chronic blue light-induced inclusions
Description: as §1
FIGS. 5A-5K show chronic blue light stimulation induces optoTDP43 mislocalization and aggregation that recapitulates pathological hallmarks seen in patient CNS tissue. HEK293 cells expressing optoTDP43-mCh were exposed to 488 nm LED stimulation or darkness for up to 36 hours. […] (FIG. 5E) Fluorescence recovery after photobleaching (FRAP) imaging was performed to assess dynamicity of optoTDP43 structures. […] (FIG. 5F) Detergent-solubility of optoTDP43 structures was assessed by subcellular fractionation to confirm aggregated state of light-induced optoTDP43 granules. […] Human ReN neurons expressing TDP43-mCh or optoTDP43 were exposed to chronic blue light stimulation and viability was simultaneously monitored by longitudinal imaging.

live cells = test: Blue light-induced clustering/aggregation of CRY2OLIG constructs visualized in live cells; assay type: cell-based; details: specific blue light stimulation paradigms
Description: FIGS. 2A-2B describe methods to generate neuropathological aggregate proteins containing an LCD/IDR/Prion-like domain with light using TDP-43 and CRY2OLIG as an example. Various protein arrangements and blue light exposure paradigms were developed to induce protein aggregation of proteins and protein fragments containing LCD/IDR/prion-like domains, promote the mislocalization of nuclear proteins and recapitulate the neuropathology of neurodegenerative diseases. TDP-43 is a predominantly nuclear protein that contains an IDR/IDD/prion-like domain, and is mislocalized and aggregated in ALS, FTD, and some AD patients, as an example. DNA sequences were engineered to generate amino acid sequences that encode for a the CRY2OLIG protein that clusters when exposed to blue light generated a fusion protein either the entire TDP-43 protein (cry2-TDP43-mCh) or just the low complexity domain (LCD/IDD/prion-like domain), which makes TDP-43 aggregation prone (Cry2-274-mCh). As a control, CRY2OLIG alone was used. All constructs were fused to a fluorescent protein called mCherry (mCh) to visualize the proteins in live cells.

HEK cells [3] = test: Acute blue light stimulation: pathological aggregate formation and toxicity; assay type: cell-based
Description: FIG. 10B is a schematic of a screening pipeline to use the induction of neurodegenerative disease pathology to identify therapeutic compounds that rescue toxicity and prevent or remove the formation of the induced neurodegenerative disease pathology.

HEK293 cells [4] = test: Immunofluorescence analysis of pathological hallmarks of light-induced optoTDP43 aggregates; assay type: cell-based
Procedure: FIGS. 5A-5K show chronic blue light stimulation induces optoTDP43 mislocalization and aggregation that recapitulates pathological hallmarks seen in patient CNS tissue. HEK293 cells expressing optoTDP43-mCh were exposed to 488 nm LED stimulation or darkness for up to 36 hours. […] (FIG. 5E) Fluorescence recovery after photobleaching (FRAP) imaging was performed to assess dynamicity of optoTDP43 structures. […] (FIG. 5F) Detergent-solubility of optoTDP43 structures was assessed by subcellular fractionation to confirm aggregated state of light-induced optoTDP43 granules. […] In addition to increased insolubility of exogenous, full-length optoTDP43 (top band), chronic blue light exposure also results in recruitment of aberrant optoTDP43 cleavage products (middle bands), as well as endogenous full-length TDP-43 and disease-relevant cleavage products (bottom bands), to the detergent-insoluble, urea-soluble fraction of cell lysates as is observed in patient tissue. (FIG. 5G) To confirm direct recruitment of non-optogenetic TDP-43 species to exogenous light-induced optoTDP43 inclusions, EGFP-tagged TDP-43 was co-expressed with optoTDP43 or the Cry2 photoreceptor-only control. […] (FIG. 5H-5J) Immunofluorescence analysis was performed on light-induced optoTDP43 aggregates to confirm pathological hallmarks seen in patient tissue. optoTDP43 inclusions appear to be (FIG. 5H) ubiquitinated, (FIG. 5I) hyperphosphorylated, and (FIG. 5J) p62-positive, all of which have been observed with TDP-43 inclusions in patient CNS. (FIG. 5K) Automated high-throughput confocal microscopy was performed to assess the neurotoxicity of light-induced optoTDP43 inclusions. Human ReN neurons expressing TDP43-mCh or optoTDP43 were exposed to chronic blue light stimulation and viability was simultaneously monitored by longitudinal imaging.

HEK293 cells [5] = test: Detergent-solubility by subcellular fractionation; assay type: cell-based; details: with and without light treatment; chronic blue light stimulation
Procedure: (§2) FIGS. 5A-5K show chronic blue light stimulation induces optoTDP43 mislocalization and aggregation that recapitulates pathological hallmarks seen in patient CNS tissue. HEK293 cells expressing optoTDP43-mCh were exposed to 488 nm LED stimulation or darkness for up to 36 hours. […] (FIG. 5E) Fluorescence recovery after photobleaching (FRAP) imaging was performed to assess dynamicity of optoTDP43 structures. […] (FIG. 5F) Detergent-solubility of optoTDP43 structures was assessed by subcellular fractionation to confirm aggregated state of light-induced optoTDP43 granules. […] In addition to increased insolubility of exogenous, full-length optoTDP43 (top band), chronic blue light exposure also results in recruitment of aberrant optoTDP43 cleavage products (middle bands), as well as endogenous full-length TDP-43 and disease-relevant cleavage products (bottom bands), to the detergent-insoluble, urea-soluble fraction of cell lysates as is observed in patient tissue. (FIG. 5G) To confirm direct recruitment of non-optogenetic TDP-43 species to exogenous light-induced optoTDP43 inclusions, EGFP-tagged TDP-43 was co-expressed with optoTDP43 or the Cry2 photoreceptor-only control. […] Human ReN neurons expressing TDP43-mCh or optoTDP43 were exposed to chronic blue light stimulation and viability was simultaneously monitored by longitudinal imaging.

HEK293 cells [6] = test: Chronic blue light stimulation: optoTDP43 mislocalization and aggregation; assay type: cell-based
Procedure: as §2

Human ReN neurons = test: Neurotoxicity by automated high-throughput confocal longitudinal imaging; assay type: cell-based; details: chronic blue light stimulation
Procedure: as §2

EGFP-tagged TDP-43 = biological target: T1, EGFP-tagged TDP-43 (Homo sapiens, UniProt Q13148); test: Recruitment of co-expressed EGFP-tagged TDP-43 to light-induced inclusions (co-localization); assay type: cell-based; details: chronic blue light stimulation
T1 construct: expressed in transfected cells
T1 sequence (Q13148 whole entry): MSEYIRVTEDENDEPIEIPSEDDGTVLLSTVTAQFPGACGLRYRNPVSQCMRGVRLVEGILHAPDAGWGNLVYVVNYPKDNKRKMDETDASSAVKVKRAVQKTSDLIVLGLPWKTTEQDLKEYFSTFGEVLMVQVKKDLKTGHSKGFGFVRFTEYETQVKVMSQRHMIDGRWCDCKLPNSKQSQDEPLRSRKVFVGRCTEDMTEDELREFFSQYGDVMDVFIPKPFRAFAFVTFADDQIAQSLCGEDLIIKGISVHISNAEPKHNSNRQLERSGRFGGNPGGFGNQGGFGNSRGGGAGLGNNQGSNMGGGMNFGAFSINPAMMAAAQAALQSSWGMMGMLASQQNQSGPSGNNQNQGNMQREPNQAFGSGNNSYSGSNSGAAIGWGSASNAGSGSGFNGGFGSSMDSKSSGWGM
Procedure: as §2

[7] = Aggregation potential of CRY2 or VVD fusion proteins by protein arrangement; assay type: cell-based; details: protein arrangement and light stimulation paradigm
Description: FIGS. 9A-9B show the aggregation potential of CRY2 or VVD fusion proteins based on the protein arrangement and light stimulation paradigm combination. Studies indicate that the ability of Cry2 or VVD photoreceptor to stimulate clustering and activation are dependent on the protein arrangement as well as the light stimulation paradigm.

[8] = biological target: the molecule itself; test: self-association in live cells on blue light, mCherry fluorescence
[9] = cited from earlier work

optoRRM2+LCD: Optogenetic C-terminal fragment of TDP-43 containing RRM2 and the low-complexity domain
oligomerization after a brief pulse of blue light (HEK cells [1]): rapidly oligomerize | persistence of oligomers (HEK cells [1]): persist much longer than the Cry2 photoreceptor alone

optoLCD: CRY2OLIG fused to just the low complexity domain of TDP-43 and mCherry
fluorescence recovery after photobleaching (FRAP) (HEK293 cells [2]): do not recover from FRAP | clustering / aggregation with blue light stimulation (reversibility) (live cells): forms irreversible aggregates | oligomerization after a brief pulse of blue light (HEK cells [1]): rapidly oligomerize | persistence of oligomers (HEK cells [1]): persist much longer than the Cry2 photoreceptor alone | time to formation of pathological aggregates (HEK cells [3]; acute stimulation): ≤ 1 hour | toxicity of aggregates (HEK cells [3]; aggregates grow in size over time): become toxic over time

optoTDP43: CRY2OLIG fused to the entire TDP-43 protein and mCherry
p62 staining of inclusions (HEK293 cells [4]): p62-positive | phosphorylation of inclusions (HEK293 cells [4]): hyperphosphorylated | ubiquitination of inclusions (HEK293 cells [4]): ubiquitinated | fluorescence recovery after photobleaching (FRAP) (HEK293 cells [2]): Lack of fluorescence recovery | clustering / aggregation with blue light stimulation (reversibility) (live cells): forms irreversible aggregates | detergent-solubility (HEK293 cells [5]): drastic shift to the insoluble fraction | localization (HEK293 cells [6]; 488 nm LED stimulation up to 36 hours, confirmed by nuclear/cytoplasmic fractionation): gradual cytoplasmic mislocalization | aggregation (HEK293 cells [6]; simultaneous chronic blue light exposure and high-throughput automated confocal microscopy): increases in propensity with increasing light exposure | neuron survival / viability (Human ReN neurons): significantly decreased viability over time | co-localization with EGFP-TDP43 (EGFP-tagged TDP-43): strong co-localization

TDP-43-CRY2OLIG-mCh: full length TDP-43, Cry2olig, mCherry reporter arrangement
ability to aggregate [7]: mislocalizes but does not exhibit the ability to aggregate

B1: CRY2OLIG-mCh (other)
chain: MKMDKKTIVWFRRDLRIEDNPALAAAAHEGSVFPVFIWCPEEEGQFYPGRASRWWMKQSLAHLSQSLKALGSDLTLIKTHNTISAILDCIRVTGATKVVFNHLYDPVSLVRDHTVKEKLVERGISVQSYNGDLLYEPWEIYCEKGKPFTSFNSYWKKCLDMSIESVMLPPPWRLMPITAAAEAIWACSIEELGLENEAEKPSNALLTRAWSPGWSNADKLLNEFIEKQLIDYAKNSKKVVGNSTSLLSPYLHFGEISVRHVFQCARMKQIIWARDKNSEGEESADLFLRGIGLREYSRYICFNFPFTHEQSLLSHLRFFPWDADVDKFKAWRQGRTGYPLVDAGMRELWATGWMHNRIRVIVSSFAVKFLLLPWKWGMKYFWDTLLDADLECDILGWQYISGSIPDGHELDRLDNPALQGAKYDPEGEYIRQWLPELARLPTEWIHHPWDAPLTVLKASGVELGTNYAKPIVDIDTARELLAKAISRTRGAQIMIGAA
notes: also called Cry2-mCh; Cry2 photoreceptor-only control; not shown: mCherry reporter and any linker
binding result [8]: binds

B2: Cry2-mCh: As a control, CRY2OLIG alone fused to mCherry (protein)
chain: B1 chain
modifications: left off: large carriers
notes: As a control, CRY2OLIG alone fused to mCherry
clustering / aggregation with blue light stimulation (reversibility) (live cells): reversibly clusters | disassembly (HEK cells [1]; after brief pulse of blue light): ~10 min | co-localization with EGFP-TDP43 (EGFP-tagged TDP-43): no co-localization

B3: CRY2OLIG: Cryptochrome 2 PHR Domain with E490G substitution (protein)
chain: B1 chain
efficiency of clustering upon blue light stimulation ([9]; E490G mutation versus endogenous sequence): slightly increased efficiency of clustering

B4: NcVVDY50W: NcVivid Y50W substitution (protein)
chain: HTLYAPGGYDIMGWLIQIMNRPNPQVELGPVDTSCALILCDLKQKDTPIVYASEAFLYMTGYSNAEVLGRNCRFLQSPDGMVKPKSTRKYVDSNTINTMRKAIDRNAEVQVEVVNFKKNGQRFVNFLTMIPVRDETGEYRYSMGFQCETE
dissipation from the dimerized state ([9]; Y50W change): slower ability to dissipate from the dimerized state
